In article PMC4450062, “A Membrane-bound eIF2 Alpha Kinase Located in Endosomes Is Regulated by Heme and Controls Differentiation and ROS Levels in Trypanosoma cruzi” (PLoS Pathogens, 2015):

Molecular target: T1, GST-TcK2 (kinase domain of TcK2, T. cruzi K2) (Trypanosoma cruzi, UniProt Q4E5B6)
T1 construct: gene Tc00.1047053506559.129; N-terminal GST fusion (pGEX5X-1), GST kept, 68 kDa; E. coli BL21; transmembrane and N-terminal domains absent
T1 sequence (Q4E5B6 638-984): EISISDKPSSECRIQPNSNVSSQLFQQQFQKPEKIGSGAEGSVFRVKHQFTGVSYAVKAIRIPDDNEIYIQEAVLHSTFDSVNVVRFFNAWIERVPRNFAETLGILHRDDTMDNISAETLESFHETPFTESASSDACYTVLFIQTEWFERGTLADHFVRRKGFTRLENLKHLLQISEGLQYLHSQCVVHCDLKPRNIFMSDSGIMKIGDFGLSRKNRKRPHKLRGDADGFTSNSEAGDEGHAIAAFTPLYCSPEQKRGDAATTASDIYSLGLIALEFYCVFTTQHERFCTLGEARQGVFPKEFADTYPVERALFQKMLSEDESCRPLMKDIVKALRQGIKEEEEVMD
Test: Soret absorbance titration at […] nm
Format: binding
Conditions: 0.1 M Tris-HCl pH 7.4, 50 mM NaCl, 25 °C, 30 min incubation; 5 μg/ml protein; GST alone shows no Soret band; read-out: Kd^app

## C=CC1=C(C)C2=Cc3c(C=C)c(C)c4[n]3[Fe]([Cl])[n]3c(c(C)c(CCC(=O)O)c3=CC3=NC(=C4)C(C)=C3CCC(=O)O)=CC1=N2 [hemin]
  Kd: 2800 ± 600 nM
